Measured values reported in ChEMBL document CHEMBL1130855, “Carbohydrate modifications in the spirostane cellobioside cholesterol absorption inhibitor series” (1998).

Key:
Cricetinae gen. sp. [1] = test: Inhibition of cholesterol absorption in the hamster.; format: functional
Cricetinae gen. sp. [2] = test: Inhibitory activity against cholesterol absorption in the hamster.; format: functional

Row | Structure (SMILES) | ED50 (Cricetinae gen. sp. [1]) | Relative potency (Cricetinae gen. sp. [2])
1 | C[C@@H]1CC[C@@]2(OC1)O[C@H]1C[C@H]3[C@@H]4CC[C@H]5C[C@@H](O[C@@H]6O[C@@H](CO)[C@@H](O[C@@H]7O[C@@H](COC(=O)Nc8ccccc8F)[C@@H](OC(=O)Nc8ccccc8F)[C@H](O)C7O)[C@H](O)[C@@H]6O)CC[C@]5(C)[C@H]4CC(=O)[C@]3(C)[C@H]1[C@@H]2C (stereo partly specified) | 0.07 mg/kg | 2.3
2 | C[C@@H]1CC[C@@]2(OC1)O[C@H]1C[C@H]3[C@@H]4CC[C@H]5C[C@@H](O[C@@H]6O[C@@H](COC(=O)Nc7ccccc7F)[C@@H](O[C@@H]7O[C@@H](COC(=O)Nc8ccccc8F)[C@@H](OC(=O)Nc8ccccc8F)[C@H](O)[C@@H]7O)[C@H](O)[C@@H]6O)CC[C@]5(C)[C@H]4C(=O)C[C@]3(C)[C@H]1[C@@H]2C | 0.2 mg/kg | 8
3 | C[C@@H]1CC[C@@]2(OC1)O[C@H]1C[C@H]3[C@@H]4CC[C@H]5C[C@@H](O[C@@H]6O[C@@H](CO)[C@@H](O[C@@H]7O[C@@H](C)C[C@H](O)[C@@H]7O)[C@H](O)[C@@H]6O)CC[C@]5(C)[C@H]4CC(=O)[C@]3(C)[C@H]1[C@@H]2C | 3 mg/kg | 100
4 | C[C@@H]1CC[C@@]2(OC1)OC1C[C@H]3[C@@H]4CC[C@H]5C[C@@H](O[C@@H]6O[C@@H](C)[C@@H](O[C@@H]7O[C@@H](CO)[C@@H](O)[C@H](O)[C@@H]7O)[C@H](O)[C@@H]6O)CC[C@]5(C)[C@H]4CC(=O)[C@]3(C)C1[C@@H]2C (stereo partly specified) | 5 mg/kg | 167
5 | C[C@@H]1CC[C@@]2(OC1)O[C@H]1C[C@H]3[C@@H]4CC[C@H]5C[C@@H](O[C@@H]6O[C@@H](CO)[C@@H](O[C@@H]7O[C@@H](COC(=O)Nc8ccccc8F)[C@@H](O)[C@H](O)[C@@H]7O)[C@H](O)[C@@H]6O)CC[C@]5(C)[C@H]4C(=O)C[C@]3(C)[C@H]1[C@@H]2C | 0.2 mg/kg | 8
6 | C[C@@H]1CC[C@@]2(OC1)O[C@H]1C[C@H]3[C@@H]4CC[C@H]5C[C@@H](O[C@@H]6O[C@@H](COC(=O)Nc7ccccc7F)C(O[C@@H]7O[C@@H](CO)C(O)[C@H](O)C7O)[C@H](O)C6O)CC[C@]5(C)[C@H]4C(=O)C[C@]3(C)[C@H]1[C@@H]2C (stereo partly specified) | 7 mg/kg | 280
7 | C[C@@H]1CC[C@@]2(OC1)O[C@H]1C[C@H]3[C@@H]4CC[C@H]5C[C@@H](O[C@@H]6O[C@@H](CO)[C@@H](O[C@@H]7O[C@@H](COC(=O)Nc8ccccc8F)C[C@H](O)[C@@H]7O)[C@H](O)[C@@H]6O)CC[C@]5(C)[C@H]4CC(=O)[C@]3(C)[C@H]1[C@@H]2C | 0.15 mg/kg | 5
8 | C[C@@H]1CC[C@@]2(OC1)O[C@H]1C[C@H]3[C@@H]4CC[C@H]5C[C@@H](O[C@@H]6O[C@@H](CO)[C@@H](O[C@@H]7O[C@@H](C)[C@@H](OC(=O)Nc8ccccc8F)[C@H](O)[C@@H]7O)[C@H](O)[C@@H]6O)CC[C@]5(C)[C@H]4CC(=O)[C@]3(C)[C@H]1[C@@H]2C | 0.03 mg/kg | 1
9 | C[C@@H]1CC[C@@]2(OC1)O[C@H]1C[C@H]3[C@@H]4CC[C@H]5C[C@@H](O[C@@H]6O[C@@H](CO)[C@@H](O[C@@H]7O[C@@H](COC(=O)Nc8ccccc8F)[C@@H](OC(=O)Nc8ccccc8F)[C@H](O)C7O)[C@H](O)[C@@H]6O)CC[C@]5(C)[C@H]4C(=O)C[C@]3(C)[C@H]1[C@@H]2C (stereo partly specified) | 0.025 mg/kg | 1
10 | C[C@@H]1CC[C@@]2(OC1)O[C@H]1C[C@H]3[C@@H]4CC[C@H]5C[C@@H](O[C@@H]6O[C@@H](CO)[C@@H](O[C@@H]7O[C@@H](COC(=O)Nc8ccccc8F)[C@@H](O)[C@H](O)[C@@H]7O)[C@H](O)[C@@H]6O)CC[C@]5(C)[C@H]4CC(=O)[C@]3(C)[C@H]1[C@@H]2C | 0.3 mg/kg | 10
11 | C[C@@H]1CC[C@@]2(OC1)O[C@H]1C[C@H]3[C@@H]4CC[C@H]5C[C@@H](O[C@@H]6O[C@@H](COC(=O)Nc7ccccc7F)[C@@H](O[C@@H]7O[C@@H](COC(=O)Nc8ccccc8F)[C@@H](O)[C@H](O)[C@@H]7O)[C@H](O)[C@@H]6O)CC[C@]5(C)[C@H]4C(=O)C[C@]3(C)[C@H]1[C@@H]2C | 0.8 mg/kg | 32
12 | C[C@@H]1CC[C@@]2(OC1)O[C@H]1C[C@H]3[C@@H]4CC[C@H]5C[C@@H](O[C@@H]6O[C@@H](CO)[C@@H](O[C@@H]7O[C@@H](C)[C@@H](O)[C@H](O)[C@@H]7O)[C@H](O)[C@@H]6O)CC[C@]5(C)[C@H]4CC(=O)[C@]3(C)[C@H]1[C@@H]2C | 3.2 mg/kg | 107
13 | C[C@@H]1CC[C@@]2(OC1)O[C@H]1C[C@H]3[C@@H]4CC[C@H]5C[C@@H](O[C@@H]6O[C@@H](CO)[C@@H](O[C@@H]7O[C@@H](CO)C[C@H](O)[C@@H]7O)[C@H](O)[C@@H]6O)CC[C@]5(C)[C@H]4CC(=O)[C@]3(C)[C@H]1[C@@H]2C | 13 mg/kg | 433
14 | C[C@@H]1CC[C@@]2(OC1)O[C@H]1C[C@H]3[C@@H]4CC[C@H]5C[C@@H](O[C@@H]6O[C@@H](CO)[C@@H](O[C@@H]7O[C@@H](CO)[C@@H](OC(=O)Nc8ccccc8F)[C@H](OC(=O)Nc8ccccc8F)[C@@H]7O)[C@H](O)[C@@H]6O)CC[C@]5(C)[C@H]4C(=O)C[C@]3(C)[C@H]1[C@@H]2C | 0.1 mg/kg | 4
15 | C[C@@H]1CC[C@@]2(OC1)O[C@H]1C[C@H]3[C@@H]4CC[C@H]5C[C@@H](O[C@@H]6O[C@@H](CO)[C@@H](O[C@@H]7O[C@@H](CO)[C@@H](OC(=O)Nc8ccccc8F)[C@H](O)[C@@H]7O)[C@H](O)[C@@H]6O)CC[C@]5(C)[C@H]4C(=O)C[C@]3(C)[C@H]1[C@@H]2C | 0.1 mg/kg | 4
16 | C[C@@H]1CC[C@@]2(OC1)O[C@H]1C[C@H]3[C@@H]4CC[C@H]5C[C@@H](O[C@@H]6O[C@@H](CO)[C@@H](O[C@@H]7O[C@@H](CO)[C@@H](OC(=O)Nc8ccccc8F)[C@H](O)[C@@H]7O)[C@H](O)[C@@H]6O)CC[C@]5(C)[C@H]4CC(=O)[C@]3(C)[C@H]1[C@@H]2C | 0.15 mg/kg | 5
17 | C[C@@H]1CC[C@@]2(OC1)O[C@H]1C[C@H]3[C@@H]4CC[C@H]5C[C@@H](O[C@@H]6O[C@@H](CO)[C@@H](O[C@@H]7O[C@@H](CO)[C@@H](O)[C@H](O)[C@@H]7O)[C@H](O)[C@@H]6O)CC[C@]5(C)[C@H]4CC(=O)[C@]3(C)[C@H]1[C@@H]2C [CELLOBIOSYL HECOGENIN] | 10 mg/kg | 333
18 | C[C@@H]1CC[C@@]2(OC1)O[C@H]1C[C@H]3[C@@H]4CC[C@H]5C[C@@H](O[C@@H]6O[C@@H](C)[C@@H](O[C@@H]7O[C@@H](C)[C@@H](O)[C@H](O)[C@@H]7O)[C@H](O)[C@@H]6O)CC[C@]5(C)[C@H]4CC(=O)[C@]3(C)[C@H]1[C@@H]2C | 5 mg/kg | 167
